Our source for the TGI values is PubChem BioAssay (NCI).

The structures appear in SMILES notation.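 Method: 48-hour compound exposure of cells in 96-well plates, five concentrations, linear interpolation of endpoints. Definition used: TGI = concentration required for complete inhibition of growth.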 Where a SMILES comes first, the peptide text is derived from it. [ ]: non-standard residue; d: D form. The star is where a group is joined. NMeAc5c = CNC1(C(=O)O)CCCC1; Boc = CC(C)(C)OC(=O)*; OBn = c1ccc(CO*)cc1 Where only a bound is given, the exact number is not on record here.

Some test systems named below: A549 NSCLC; DU-145 prostate; HS 578T breast; KM12 colon; LOX IMVI melanoma; M14 melanoma; MCF7 breast; NCI-H460 lung; SK-OV-3 ovarian; U251 CNS.
Common to all, as to test: growth of human tumour cells (NCI), 48 h

As for `CC[C@@H]1CC[C@@H]2[C@H](CC[C@]3(C)[C@@H](OC(C)=O)CC[C@@H]23)[C@H]1COC(C)=O`, the TGI with A549 NSCLC is 59.2 µM; in the assay on DU-145 prostate, over 100 µM; in the assay with HS 578T breast, over 100 µM; with KM12 colon, 60 µM; in the assay on LOX IMVI melanoma, 31.5 µM; in the assay on M14 melanoma it was 76.6 µM. Moreover, the TGI was over 100 µM with MCF7 breast, 45.9 µM with NCI-H460 lung, over 100 µM in the assay with SK-OV-3 ovarian and 45 µM in the assay with U251 CNS.
For `CC(C)(C)N1CSC(=S)N(Cc2ccco2)C1`, the TGI with A549 NSCLC was determined as 24.4 µM; with DU-145 prostate, 15.5 µM; in the assay with HS 578T breast, 26.1 µM; in the assay with KM12 colon, 14.3 µM; in the assay on LOX IMVI melanoma, 14.6 µM; in the assay with M14 melanoma it was 11.8 µM. The TGI amounted to 14.3 µM in the assay on MCF7 breast, 22.5 µM in the assay on NCI-H460 lung, 18.9 µM with SK-OV-3 ovarian and 14.4 µM in the assay on U251 CNS.
In the case of `CC(=O)O[C@@H]1[C@H](C(C)C)[C@@H](OC(C)=O)C/C(C)=C/CC[C@]2(C)O[C@@H]12`, the TGI with A549 NSCLC, in the assay on DU-145 prostate, in the assay with HS 578T breast, in the assay on KM12 colon, in the assay on LOX IMVI melanoma and in the assay on M14 melanoma was over 100 µM in each case. In addition, the TGI with MCF7 breast, in the assay on NCI-H460 lung, with SK-OV-3 ovarian and with U251 CNS was over 100 µM in each case.
Turning to `COc1cc2nc3n(c(=O)c2cc1OC)-c1ccc([N+](=O)[O-])cc1C3=O`, the TGI in the assay with A549 NSCLC, with DU-145 prostate, in the assay on HS 578T breast, in the assay with KM12 colon, in the assay with LOX IMVI melanoma and in the assay with M14 melanoma was over 100 µM throughout. For the same molecule, the TGI in the assay with MCF7 breast was 32 µM; with NCI-H460 lung, over 100 µM; in the assay on SK-OV-3 ovarian it was over 100 µM; in the assay with U251 CNS, over 100 µM.
On to `O=C(N/N=C(/COc1ccc(Cl)cc1)N=Cc1ccncc1)c1ccncc1`, for which the TGI in the assay on A549 NSCLC, in the assay on DU-145 prostate, in the assay with HS 578T breast, in the assay with KM12 colon, with LOX IMVI melanoma and in the assay on M14 melanoma was over 100 µM throughout. Further, the TGI with MCF7 breast, in the assay on NCI-H460 lung, in the assay with SK-OV-3 ovarian and in the assay with U251 CNS was over 100 µM each time.
As for `CC(=O)OC1CC(OC2C(O)CC(OC3C(O)CC(OC4CCC5(C)C(CCC6C5CC(O)C5(C)C(C7=CC(=O)OC7)CCC65O)C4)OC3C)OC2C)OC(C)C1OC1OC(CO)C(O)C(O)C1O` (stereo not given), the TGI was found to be 0.0399 µM in the assay with A549 NSCLC; 0.106 µM in the assay with DU-145 prostate; 0.525 µM in the assay on HS 578T breast; 0.519 µM with KM12 colon; 0.161 µM in the assay on LOX IMVI melanoma; 0.343 µM in the assay on M14 melanoma. For the same molecule, the TGI in the assay on MCF7 breast amounted to 0.431 µM; with NCI-H460 lung it was 0.0678 µM; with SK-OV-3 ovarian, 0.333 µM; with U251 CNS, 0.207 µM.
In the case of `CC(=O)NC(Cc1ccc(O)cc1)C(=O)O` (stereo not given), the TGI in the assay on A549 NSCLC, in the assay on DU-145 prostate, in the assay on HS 578T breast, in the assay with KM12 colon, with LOX IMVI melanoma and in the assay with M14 melanoma was over 100 µM each time. The TGI with MCF7 breast, with NCI-H460 lung, in the assay on SK-OV-3 ovarian and in the assay on U251 CNS was over 100 µM throughout.
For `[N-]=[N+]=NC[C@H]1OCO[C@H](CN=[N+]=[N-])[C@@H](OCCOCCCl)[C@@H]1OCCOCCCl`, the TGI with A549 NSCLC, in the assay on DU-145 prostate, with HS 578T breast, in the assay with KM12 colon, with LOX IMVI melanoma and in the assay on M14 melanoma was over 100 µM each time. Moreover, the TGI with MCF7 breast, in the assay with NCI-H460 lung, in the assay on SK-OV-3 ovarian and with U251 CNS was over 100 µM each time.
In the case of `C=CCN1C[C@H](C)N([C@H](c2ccc(C(=O)NC(CC)CC)cc2)c2cccc(OC)c2)C[C@H]1C`, the TGI with A549 NSCLC is over 100 µM; in the assay on DU-145 prostate, over 100 µM; with HS 578T breast, over 100 µM; in the assay on KM12 colon, over 100 µM; in the assay with LOX IMVI melanoma, 58.6 µM; in the assay with M14 melanoma it was 34.4 µM. The TGI with MCF7 breast, in the assay on NCI-H460 lung, in the assay on SK-OV-3 ovarian and in the assay on U251 CNS was over 100 µM each time.
With `C[C@@H](NC(=O)[C@@H]1C[C@]1(C)COC(=O)c1cc([N+](=O)[O-])cc([N+](=O)[O-])c1)c1cccc2ccccc12`, the TGI in the assay with A549 NSCLC, in the assay on DU-145 prostate, in the assay with HS 578T breast, with KM12 colon, in the assay on LOX IMVI melanoma and in the assay on M14 melanoma was over 100 µM each time. The TGI in the assay with MCF7 breast, in the assay on NCI-H460 lung, in the assay on SK-OV-3 ovarian and with U251 CNS was over 100 µM throughout.
Consider `COc1cccc(C(=O)O[C@H]2[C@@H]3[C@]4(OC(C)=O)CO[C@@H]4C[C@H](O)[C@@]3(C)C(=O)[C@H](OC(C)=O)C3=C(C)[C@@H](OC(=O)[C@H](O)[C@@H](NC(=O)OC(C)(C)C)c4ccco4)C[C@]2(O)C3(C)C)c1`, for which the TGI in the assay on A549 NSCLC was over 37.5 µM; with DU-145 prostate, over 37.5 µM; with HS 578T breast, 3.4 µM; in the assay with KM12 colon, over 15.2 µM; with LOX IMVI melanoma, over 15.6 µM; in the assay with M14 melanoma, 5.9 µM. The TGI with MCF7 breast is over 37.5 µM; with NCI-H460 lung it was over 37.5 µM; with SK-OV-3 ovarian it was 0.0279 µM; with U251 CNS, over 16.6 µM.
With `CN(C(=O)C(Cc1ccccc1)NC(=O)OC(C)(C)C)C1(C(=O)NC(Cc2ccccc2)C(=O)OCc2ccccc2)CCCC1` (stereo not drawn) (Boc-Phe-[NMeAc5c]-Phe-OBn; configuration not given here), the TGI in the assay on A549 NSCLC is over 100 µM; in the assay on DU-145 prostate it was over 100 µM; in the assay on HS 578T breast it was over 100 µM; in the assay with KM12 colon, over 100 µM; in the assay with LOX IMVI melanoma, over 100 µM; with M14 melanoma, 45.9 µM. The TGI is over 100 µM in the assay with MCF7 breast, 59.8 µM with NCI-H460 lung, 41.3 µM with SK-OV-3 ovarian and 51.1 µM in the assay on U251 CNS.
On to `CCCCCCc1cc2cc(-c3csc(CC#N)n3)c(=O)oc2cc1O`, for which the TGI with A549 NSCLC, with DU-145 prostate, with HS 578T breast, in the assay on KM12 colon, with LOX IMVI melanoma and with M14 melanoma was over 100 µM each time. Also, the TGI is over 100 µM in the assay on MCF7 breast, over 100 µM in the assay on NCI-H460 lung, 97.6 µM with SK-OV-3 ovarian and over 100 µM with U251 CNS.
